The source of these data is ChEMBL document CHEMBL1144133, “Novel highly oxygenated bisabolane sesquiterpenes from Cremanthodium discoideum” (1999).

What all share (format): functional
One assay relates to Pseudomonas aeruginosa. Description: Antibacterial activity against Bacillus aeruginosus MCCB 10104 at 100 ug/ml after 24 hrs by paper-disk method.
Another assay concerns Bacillus subtilis. Description: Antibacterial activity against Bacillus subtilis MCCB 26501 at 100 ug/ml after 24 hrs by paper-disk method.
The next assay concerns Bacillus. Nature of the assay: Antibacterial activity against Bacillus acidilatici MCCB 44102 at 100 ug/ml after 24 hrs by paper-disk method.

Some results are limits rather than exact numbers.

As for `C=C([C@@H](C[C@H](O)C(C)(C)OC)OC(=O)/C(C)=C\C)[C@@H]1C[C@@H](Cl)[C@](C)(O)[C@H](OC(C)=O)[C@@H]1OC(=O)/C(C)=C\C`, the Activity with Pseudomonas aeruginosa is listed as below 9 mm; with Bacillus subtilis, 13 mm; in the assay on Bacillus, 10 mm.
For the molecule `O=C(N[C@H](CO)[C@H](O)c1ccc([N+](=O)[O-])cc1)C(Cl)Cl` [CHLORAMPHENICOL], the Activity with Pseudomonas aeruginosa, in the assay on Bacillus subtilis and with Bacillus was 13 mm throughout.
